Assay results from PubChem BioAssay (NCI).
Several values for one entry are separate records, joined by “and”; a condition that tells them apart may be missing. Equal entries are not always repeated.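 A five-concentration, 48-hour dose response in 96-well plates underlies each endpoint, interpolated linearly between surrounding concentrations. Here, GI50 denotes the concentration required for 50% inhibition of growth. The concentration for full growth arrest is given as TGI.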

How the values were obtained:
Assay in all cases: DTP human tumour cell line panel, 48 h
SK-OV-3 ovarian = tested on: SK-OV-3 ovarian
SK-MEL-5 melanoma = tested on: SK-MEL-5 melanoma
HCC-2998 colon = tested on: HCC-2998 colon
A498 renal = tested on: A498 renal
LOX IMVI melanoma = tested on: LOX IMVI melanoma
ACHN renal = tested on: ACHN renal
U251 CNS = tested on: U251 CNS
SK-MEL-28 melanoma = tested on: SK-MEL-28 melanoma
KM20L2 colon = tested on: KM20L2 colon

CC[C@]1(O)C[C@@H]2CN(Cc3c([nH]c4ccccc34)[C@@](C(=O)OC)(c3cc4c(cc3OC)N(C)[C@H]3[C@@](O)(C(=O)OC)[C@H](OC(C)=O)[C@]5(CC)[C@@H]6C[C@@H]6CN6CC[C@]43[C@@H]65)C2)C1
GI50 (SK-OV-3 ovarian): 0.0841 µM | TGI (SK-OV-3 ovarian): > 4.38 µM | GI50 (SK-MEL-5 melanoma): 119 nM | TGI (SK-MEL-5 melanoma): 1.85 µM | GI50 (HCC-2998 colon): 116 nM | TGI (HCC-2998 colon): > 4.38 µM | GI50 (A498 renal): 163 nM | TGI (A498 renal): > 2.85 µM | GI50 (LOX IMVI melanoma): 30.4 nM | TGI (LOX IMVI melanoma): > 4.38 µM | GI50 (ACHN renal): 3380 nM | TGI (ACHN renal): > 4.38 µM | GI50 (U251 CNS): 112 nM | TGI (U251 CNS): > 4.38 µM | GI50 (SK-MEL-28 melanoma): 82.2 nM | TGI (SK-MEL-28 melanoma): > 4.38 µM

Cc1ccc(S(=O)(=O)NCCCN(CCCNS(=O)(=O)c2ccc(C)cc2)S(=O)(=O)c2ccc(C)cc2)cc1
TGI (SK-OV-3 ovarian): > 100 µM | TGI (HCC-2998 colon): > 100 µM | TGI (LOX IMVI melanoma): > 100 µM | TGI (ACHN renal): > 100 µM | TGI (U251 CNS): > 100 µM | TGI (SK-MEL-28 melanoma): > 100 µM | TGI (KM20L2 colon): > 100 µM

CC(C)Oc1cc(OCC(=O)O)cc(C(=O)N(CCC(N)=O)C(=O)Nc2ccc(C(=O)O)cc2OC(C)C)c1
GI50 (SK-OV-3 ovarian): > 100 µM | TGI (SK-OV-3 ovarian): > 100 µM | GI50 (SK-MEL-5 melanoma): > 100000 nM | TGI (SK-MEL-5 melanoma): > 100 µM | GI50 (HCC-2998 colon): > 100000 nM | TGI (HCC-2998 colon): > 100 µM | GI50 (A498 renal): > 100000 nM | TGI (A498 renal): > 100 µM | GI50 (LOX IMVI melanoma): > 100000 nM | TGI (LOX IMVI melanoma): > 100 µM | GI50 (ACHN renal): > 100000 nM | TGI (ACHN renal): > 100 µM | GI50 (U251 CNS): > 100000 nM | TGI (U251 CNS): > 100 µM | GI50 (SK-MEL-28 melanoma): > 100000 nM | TGI (SK-MEL-28 melanoma): > 100 µM

CC(C)(O)Cn1c(=O)c(Oc2ccc(F)cc2F)cc2cnc(NC3CCOCC3)nc21
GI50 (SK-OV-3 ovarian): > 25 µM | TGI (SK-OV-3 ovarian): > 25 µM | GI50 (SK-MEL-5 melanoma): > 25000 nM | TGI (SK-MEL-5 melanoma): > 25 µM | GI50 (HCC-2998 colon): > 25000 nM | TGI (HCC-2998 colon): > 25 µM | GI50 (A498 renal): > 14700 nM | TGI (A498 renal): > 25 µM | GI50 (LOX IMVI melanoma): > 25000 nM | TGI (LOX IMVI melanoma): > 25 µM | GI50 (ACHN renal): > 25000 nM | TGI (ACHN renal): > 25 µM | GI50 (U251 CNS): > 25000 nM | TGI (U251 CNS): > 25 µM | GI50 (SK-MEL-28 melanoma): > 25000 nM | TGI (SK-MEL-28 melanoma): > 25 µM

C=CCCc1cc(OC)ccc1CN(C)C(C)(C)CO
TGI (SK-MEL-5 melanoma): > 100 µM | TGI (A498 renal): > 100 µM | TGI (LOX IMVI melanoma): > 100 µM | TGI (ACHN renal): > 100 µM | TGI (U251 CNS): > 100 µM | TGI (SK-MEL-28 melanoma): > 100 µM | TGI (KM20L2 colon): > 100 µM

Cc1cc(Cl)n2c(nc3ccccc32)c1C#N
GI50 (SK-OV-3 ovarian): 3.81 µM | TGI (SK-OV-3 ovarian): 15.6 µM | GI50 (SK-MEL-5 melanoma): 573 nM | TGI (SK-MEL-5 melanoma): 3.45 µM | GI50 (HCC-2998 colon): 727 nM | TGI (HCC-2998 colon): 2.31 µM | GI50 (A498 renal): 4180 nM | TGI (A498 renal): 17.7 µM | GI50 (LOX IMVI melanoma): 260 nM | TGI (LOX IMVI melanoma): 1.35 µM | GI50 (ACHN renal): 567 nM | TGI (ACHN renal): 1.84 µM | GI50 (U251 CNS): 482 nM | TGI (U251 CNS): 3.17 µM | GI50 (SK-MEL-28 melanoma): 1400 nM | TGI (SK-MEL-28 melanoma): 6.34 µM

O=C(Cn1ccnc1[N+](=O)[O-])NCCO
TGI (SK-OV-3 ovarian): > 100 µM | TGI (SK-MEL-5 melanoma): > 100 µM | TGI (HCC-2998 colon): > 100 µM | TGI (A498 renal): > 100 µM | TGI (LOX IMVI melanoma): > 100 µM | TGI (ACHN renal): > 100 µM | TGI (U251 CNS): > 100 µM | TGI (SK-MEL-28 melanoma): > 100 µM

CC/C=C/[C@@H]1C=C[C@@H]2CCC[C@H]2[C@@H]1CC[C@H](O)[C@H](C)N
GI50 (SK-OV-3 ovarian): 1.69 µM | TGI (SK-OV-3 ovarian): 4.15 µM | GI50 (SK-MEL-5 melanoma): 1690 nM | TGI (SK-MEL-5 melanoma): 3.16 µM | GI50 (HCC-2998 colon): 1420 nM | TGI (HCC-2998 colon): 2.74 µM | GI50 (A498 renal): 1620 nM | TGI (A498 renal): 5.58 µM | GI50 (LOX IMVI melanoma): 1580 nM | TGI (LOX IMVI melanoma): 2.92 µM | GI50 (ACHN renal): 1590 nM | TGI (ACHN renal): 2.94 µM | GI50 (U251 CNS): 1530 nM | TGI (U251 CNS): 2.86 µM | GI50 (SK-MEL-28 melanoma): 1660 nM | TGI (SK-MEL-28 melanoma): 3.01 µM

[N-]=[N+]=Nc1ccc(S(=O)(=O)Oc2cc(OS(=O)(=O)c3ccc(N=[N+]=[N-])cc3)cc(OS(=O)(=O)c3ccc(N=[N+]=[N-])cc3)c2)cc1
TGI (SK-MEL-5 melanoma): > 100 µM | TGI (HCC-2998 colon): > 100 µM | TGI (A498 renal): > 100 µM | TGI (LOX IMVI melanoma): > 100 µM | TGI (ACHN renal): > 10 µM | TGI (U251 CNS): > 100 µM | TGI (SK-MEL-28 melanoma): > 100 µM | TGI (KM20L2 colon): > 100 µM

COc1ccc(C(=O)c2cc3c(N)c(C(=O)Nc4cccc(Cl)c4)sc3nc2C)cc1
GI50 (SK-OV-3 ovarian): 1.58 µM | TGI (SK-OV-3 ovarian): > 33.3 µM | GI50 (SK-MEL-5 melanoma): 920 nM | TGI (SK-MEL-5 melanoma): 2.6 µM | GI50 (HCC-2998 colon): 1920 nM | TGI (HCC-2998 colon): > 33.3 µM | GI50 (A498 renal): 821 nM | TGI (A498 renal): > 33.3 µM | GI50 (LOX IMVI melanoma): 2390 nM | TGI (LOX IMVI melanoma): > 33.3 µM | GI50 (ACHN renal): 2120 nM | TGI (ACHN renal): > 33.3 µM | GI50 (U251 CNS): 1380 nM | TGI (U251 CNS): > 33.3 µM | GI50 (SK-MEL-28 melanoma): 3030 nM | TGI (SK-MEL-28 melanoma): > 33.3 µM

COC(=O)C1=C(O)C(O)=C(C(=O)OC)CC1
TGI (SK-OV-3 ovarian): > 100 µM | TGI (SK-MEL-5 melanoma): > 100 µM | TGI (HCC-2998 colon): > 100 µM | TGI (A498 renal): > 100 µM | TGI (LOX IMVI melanoma): > 100 µM | TGI (ACHN renal): > 100 µM | TGI (U251 CNS): > 100 µM | TGI (SK-MEL-28 melanoma): > 100 µM

CCc1nc(N)nc(N)c1-c1ccc(Cl)cc1
GI50 (SK-OV-3 ovarian): 84.9 µM | TGI (SK-OV-3 ovarian): > 100 µM | GI50 (SK-MEL-5 melanoma): 4140 nM | TGI (SK-MEL-5 melanoma): > 100 µM and 19.8 µM | TGI (HCC-2998 colon): > 100 µM and 25.7 µM | GI50 (A498 renal): 24100 nM | TGI (A498 renal): > 100 µM and 42.4 µM | GI50 (LOX IMVI melanoma): 2820 nM | TGI (LOX IMVI melanoma): > 100 µM | TGI (ACHN renal): > 100 µM | GI50 (U251 CNS): 5650 nM | TGI (U251 CNS): > 100 µM | GI50 (SK-MEL-28 melanoma): > 100000 nM | TGI (SK-MEL-28 melanoma): > 100 µM

Cc1cc(O)c2c(c1)C[C@@H](O)C1=C2C(=O)c2c(O)ccc(OC3CC(O)C(OC4CC(OC5CCC(OC6CC(O)C(OC7CC(OC8CCC(O)C(C)O8)C(O)C(C)O7)C(C)O6)C(C)O5)C(O)C(C)O4)C(C)O3)c2C1=O (stereo partly specified)
GI50 (SK-MEL-5 melanoma): 1330 nM and 1200 nM | GI50 (HCC-2998 colon): 1760 nM and 1450 nM | GI50 (A498 renal): 2720 nM and 2470 nM | GI50 (LOX IMVI melanoma): 295 nM and 230 nM | GI50 (ACHN renal): 1520 nM and 726 nM | GI50 (U251 CNS): 469 nM and 306 nM | GI50 (SK-MEL-28 melanoma): 267 nM and 1440 nM | TGI (KM20L2 colon): 0.191 µM

CCS[C@H]1NC(=O)C1[C@H](C)O[Si](C)(C)C(C)(C)C (stereo partly specified)
TGI (A498 renal): > 100 µM | TGI (LOX IMVI melanoma): > 100 µM | TGI (ACHN renal): > 100 µM | TGI (U251 CNS): > 100 µM | TGI (SK-MEL-28 melanoma): > 100 µM | TGI (KM20L2 colon): > 100 µM

Cc1c(C(=O)/C=C/c2ccco2)[n+](=O)c2ccccc2n1[O-]
TGI (SK-OV-3 ovarian): > 100 µM | TGI (HCC-2998 colon): > 100 µM | TGI (A498 renal): > 100 µM | TGI (LOX IMVI melanoma): > 100 µM | TGI (ACHN renal): > 100 µM | TGI (SK-MEL-28 melanoma): > 100 µM | TGI (KM20L2 colon): > 100 µM

COc1ccc(C(=O)CC2(O)C(=O)Nc3c(Cl)ccc(Cl)c32)cc1 (stereo unspecified)
GI50 (SK-OV-3 ovarian): 2.89 µM | TGI (SK-OV-3 ovarian): > 100 µM | GI50 (SK-MEL-5 melanoma): 1010 nM | TGI (SK-MEL-5 melanoma): 18.8 µM | GI50 (HCC-2998 colon): 5240 nM | TGI (HCC-2998 colon): > 54 µM | GI50 (A498 renal): 599 nM | TGI (A498 renal): 7.02 µM | GI50 (LOX IMVI melanoma): 2720 nM | TGI (LOX IMVI melanoma): > 100 µM | GI50 (ACHN renal): 12600 nM | TGI (ACHN renal): > 100 µM | GI50 (U251 CNS): 2330 nM | TGI (U251 CNS): > 62.3 µM | GI50 (SK-MEL-28 melanoma): 6220 nM | TGI (SK-MEL-28 melanoma): > 100 µM

C=C1C(=O)OC(CCCCCCCC)C1C(=O)O (stereo unspecified)
GI50 (SK-OV-3 ovarian): 34.3 µM | TGI (SK-OV-3 ovarian): > 77.9 µM | GI50 (SK-MEL-5 melanoma): 16100 nM | TGI (SK-MEL-5 melanoma): 29.9 µM | GI50 (HCC-2998 colon): 17500 nM | TGI (HCC-2998 colon): 31.4 µM | GI50 (A498 renal): 17400 nM | TGI (A498 renal): 33.3 µM | GI50 (LOX IMVI melanoma): 13500 nM | TGI (LOX IMVI melanoma): 26.9 µM | GI50 (ACHN renal): 17200 nM | TGI (ACHN renal): 31 µM | GI50 (U251 CNS): 15600 nM | TGI (U251 CNS): 29.4 µM | GI50 (SK-MEL-28 melanoma): 15000 nM | TGI (SK-MEL-28 melanoma): 29.1 µM
